EP0407582A1, “DERIVATIVES OF TRICHLOROPHOSPHAS[…] INSECTICIDAL, VIRICIDAL, HEMATOCIDAL, FUNGICIDAL AND OVOCIDAL PREPARATIONS BASED ON THEM” (priority 1989, dated 1990)
Read-outs that look alike come from different tables or passages of the source.

Tests used:
Fusarium oxysporum [1] = experiment: Fungicidal activity, laboratory test on potato-dextrose agar; format: cell-based; conditions: 0.01 % by mass of active principle
Method: (§1) Based on the compound, a fungicidal composition was prepared in the form of a 0.01% solution thereof in distilled water. A fungicidal activity of the compound, according to the invention, was tested for inhibition of vegetative fungi growth such as Fusarium oxyporum, Fusarium moniliforme, Botrytis cinerea, Fusarium culmorum, Diplodia zeae, Rhyzoctonia violacea, Verticillium alboartrum, Verturia inaequalis, Rhyzoctonia aderholdii affecting potato, sugar beet, cotton seeds. The tests were conducted either in laboratory or in field conditions. For tests, the composition of the invention containing-0.01 % by mass of an active principle was introduced into Petri dishes with a nutrient medium, specifically, potato-dextrose agar. The phytopathogenic fungi mycelium was plated on the Petri dishes with this agar culture. The phytopathogenic fungi were plated on control dishes with agar culture without adding the composition of the invention. The fungicidal action of the composition, according to the invention, was tested in comparison with the known fungicidal composition based on 2,3-dichloronaphthoquinone-1,4 (phygon), zinc N,N'-ethylene-bis-(dithiocarbamate) (zineb) and thiuram.

Rhyzoctonia aderholdii [2] = experiment: as above; format: cell-based; conditions: 0.01 % by mass of active principle
Method: as §1

Fusarium culmorum [3] = experiment: as above; format: cell-based; conditions: 0.01 % by mass of active principle
Method: as §1

Rhyzoctonia violacea [4] = experiment: as above; format: cell-based; conditions: 0.01 % by mass of active principle
Method: as §1

Botrytis cinerea [5] = experiment: as above; format: cell-based; conditions: 0.01 % by mass of active principle
Method: as §1

Diplodia zeae [6] = experiment: as above; format: cell-based; conditions: 0.01 % by mass of active principle
Method: as §1

Fusarium moniliforme [7] = experiment: as above; format: cell-based; conditions: 0.01 % by mass of active principle
Method: as §1

Verturia inaequalis [8] = experiment: as above; format: cell-based; conditions: 0.01 % by mass of active principle
Method: as §1

Verticillium albo-atrum [9] = experiment: as above; format: cell-based; conditions: 0.01 % by mass of active principle
Method: as §1

Verticillium albo-atrum [10] = experiment: Fungicidal activity, field test on sprayed potato plots; format: in vivo
Rhyzoctonia violacea [11] = experiment: as above; format: in vivo
Fusarium oxysporum [12] = experiment: as above; format: in vivo
Method: (§2) In the field conditions potato plantations of 5 m^2 in size affected by Fusarium oxysporem, Fusarium moniliforme, Betrytis cinerea, Fusarium culmorum, Diplodia Verturia inaequalis, Rhyzoctonia aderholdii were sprayed by a fungicidal composition of the. invention.
(§3) For comparison, a similar spraying of the affected potato-plots was carried out using a. known fungicidal compositions.

Rhyzoctonia aderholdii [13] = experiment: as above; format: in vivo
Method: as §2, §3

Fusarium culmorum [14] = experiment: as above; format: in vivo
Method: as §2, §3

Botrytis cinerea [15] = experiment: as above; format: in vivo
Method: as §2, §3

Diplodia zeae [16] = experiment: as above; format: in vivo
Method: as §2, §3

Fusarium moniliforme [17] = experiment: as above; format: in vivo
Method: as §2, §3

Verturia inaequalis [18] = experiment: as above; format: in vivo
Method: as §2, §3

hepatitis B virus [19] = system: hepatitis B virus
influenza A virus [20] = system: influenza A virus
[21] = Solubility in water and organic solvents; format: physicochemical; conditions: qualitative, solvents named
domestic flies [22] = experiment: Insecticidal activity, laboratory test in gauze boxes; format: in vivo; conditions: 0.25% solution in 5% aqueous glucose solution; death rate estimated in 48 - 72 hours
Method: An insecticidal composition based thereon, which was a 0.25% solution of this compound in a 5% aqueous glucose solution, was prepared. The laboratory and large-scale tests of the activity of an insecticidal composition of the invention was conducted on domestic flies. for laboratory tests into the gauze-made boxes (10x10 cm, 6 boxes), there were placed 6-7-day flies of both sexes by 50 individuals per each box. Into 5 boxes there were placed Petri dishes containing the insecticidal composition of the invention. The death rate of flies was estimated-in 48 - 72 hours. A Petri dish containing a 5% aqueous solution of glucose was placed into the control box. The insecticidal activity of the composition, according to the invention, was tested in comparison with a known insecticidal composition containing 0,0-dimethyl-/1-hydroay-2,2-trichloroethyl/phosphonate.

domestic flies [23] = experiment: Insecticidal activity, large-scale test in living and industrial premises; format: in vivo; conditions: 0.25% solution with 5% glucose solution, 2-3 dishes per 20 m2; 72 hours
Method: The large-scale tests of the activity of the insecticidal composition, according to the invention, was conducted on domestic flies in living and industrial premises. Petri dishes containing a 0.25% aqueous solution of the insecticide, according to the invention, added with a 5% glucose solution, were put at a rate of 2-3 dishes per 20 m2. The .activity of the composition of the invention was estimated by a direct count of dead insects in 72 hours or by using the adhesive tapes, counting the number of flies on the tape prior and after carrying out the test.

hepatitis B virus [24] = experiment: Virucidal activity, suspension method under protein loading, counter-current immunoelectrophoresis
influenza A virus [25] = experiment: microbe, parasite or virus in culture; set-up: species or system strain of influenza A1 virus
poliomyelitis virus = experiment: microbe, parasite or virus in culture; format: cell-based, poliomyelitis-II virus

Row | Compound | Inhibition of colony growth of phyto-pathogenic fungi, % Fusarium oxysporum laboratory (Fusarium oxysporum [1]) | Inhibition of colony growth of phytopathogenic fungi,% Rhyzoctonia aderholdii laboratory (Rhyzoctonia aderholdii [2]) | Inhibition of colony growth of phytopatogenic,fungi,% Fusarium culmorum laboratory (Fusarium culmorum [3]) | Inhibition of colony growth of phytopatogenic,fungi,% Rhyzoctonia violacea laboratory (Rhyzoctonia violacea [4]) | Inhibition of colony growth of phyto-pathogenic fungi, % Botrytis cinerea laboratory (Botrytis cinerea [5]) | Inhibition of colony growth of phytopatogenic,fungi,% Diplidia zeae laboratory (Diplodia zeae [6]) | Inhibition of colony growth of phyto-pathogenic fungi, % Fusarium moniliforme laboratory (Fusarium moniliforme [7]) | Inhibition of colony growth of phytopathogenic fungi,% Verturia inaequalis laboratory (Verturia inaequalis [8]) | Inhibition of colony growth of phytopathogenic fungi,% Verticillium albo-atrum laboratory (Verticillium albo-atrum [9]) | Inhibition of colony growth of phytopathogenic fungi,% Verticillium albo-atrum field (Verticillium albo-atrum [10]) | Inhibition of colony growth of phytopatogenic,fungi,% Rhyzoctonia violacea field (Rhyzoctonia violacea [11]) | Inhibition of colony growth of phyto-pathogenic fungi, % Fusarium oxysporum field (Fusarium oxysporum [12]) | Inhibition of colony growth of phytopathogenic fungi,% Rhyzoctonia aderholdii field (Rhyzoctonia aderholdii [13]) | Inhibition of colony growth of phytopatogenic,fungi,% Fusarium culmorum field (Fusarium culmorum [14]) | Inhibition of colony growth of phyto-pathogenic fungi, % Botrytis cinerea field (Botrytis cinerea [15]) | Inhibition of colony growth of phytopatogenic,fungi,% Diplidia zeae field (Diplodia zeae [16]) | Inhibition of colony growth of phyto-pathogenic fungi, % Fusarium moniliforme field (Fusarium moniliforme [17]) | Inhibition of colony growth of phytopathogenic fungi,% Verturia inaequalis field (Verturia inaequalis [18]) | solubility [21] | also measured
1 | O=C1C(Cl)=C(Cl)C(=O)c2ccccc21 [phygon, 2,3-dichloronaphthoquinone-1,4] | 35% | 54% | 57% | 34% | 38% | 71% | 35% | 58% | 63% | 66% | 33% | 30% | 55% | 45% | 32% | 81% | 32% | 61% |  | 
2 | O=C(N=P(OC[C@@H](NC(=O)C(Cl)Cl)[C@H](O)c1ccc([N+](=O)[O-])cc1)(OC[C@@H](NC(=O)C(Cl)Cl)[C@H](O)c1ccc([N+](=O)[O-])cc1)OC[C@@H](NC(=O)C(Cl)Cl)[C@H](O)c1ccc([N+](=O)[O-])cc1)c1ccccc1 [Example 4, tris-d/-/-threo-3-para nitrophenyl--2-dichloroacetamido-3-hydroxypropoxy/phosphazobenzoyl] |  |  |  |  |  |  |  |  |  |  |  |  |  |  |  |  |  |  |  | inhibition of viral antigen titers, Hepatitis B virus (hepatitis B virus [19]; 1% solution in 0.85% sodium chloride, exposure 5, 30, 60 minutes): 100; inhibition of viral antigen titers, Influenza A virus (influenza A virus [20]; 1% solution): 100
3 | CC(C)(OP(=NC(=O)c1ccccc1)(OC(C)(C)C(Cl)(Cl)Cl)OC(C)(C)C(Cl)(Cl)Cl)C(Cl)(Cl)Cl [Example 2, tris-(dimethyl-2,2,2-trichloroethoxy)phosphazobenzoyl] |  |  |  |  |  |  |  |  |  |  |  |  |  |  |  |  |  |  | soluble in water, alcohols, acetone, benzene, toluene | Death of flies, % Tests laboratory (domestic flies [22]): 90%; Death of flies, % Tests large-scale (domestic flies [23]): 88%
4 | O=S(=O)(NCl)c1ccccc1.[Na] [sodium-N-chloro-benzene sulf-amide, sodium N-chlorobenzene sulphonamide] |  |  |  |  |  |  |  |  |  |  |  |  |  |  |  |  |  |  |  | killing at 1 % (hepatitis B virus [24]; 0.25 h, read-out: Death of viruses (%) under exposure, Hepatitis B, 15 min): 0%; killing at 1 % (hepatitis B virus [24]; 0.5 h, read-out: Death of viruses (%) under exposure, Hepatitis B, 30 min): 12.5%; killing at 1 % (hepatitis B virus [24]; 1 h, read-out: Death of viruses (%) under exposure, Hepatitis B, 60 min): 25%; inhibition of viral antigen titers, Hepatitis B virus (hepatitis B virus [19]): 50; inhibition of viral antigen titers, Influenza A virus (influenza A virus [20]): 50; killing at 1 % (influenza A virus [25]; 0.25 h, read-out: Death of viruses (%) under exposure, Influenza A, 15 min): 0%; killing at 1 % (influenza A virus [25]; 0.5 h, read-out: Death of viruses (%) under exposure, Influenza A, 30 min): 12.5%; killing at 1 % (influenza A virus [25]; 1 h, read-out: Death of viruses (%) under exposure, Influenza A, 60 min): 25%; killing at 1 % (poliomyelitis virus; 10 min, read-out: Death of viruses (%) under exposure, Poliomyelitis, 10 min): 0%; killing at 1 % (poliomyelitis virus; 0.5 h, read-out: Death of viruses (%) under exposure, Poliomyelitis, 30 min): 12.5%; killing at 1 % (poliomyelitis virus; 1 h, read-out: Death of viruses (%) under exposure, Poliomyelitis, 60 min): 25%
5 | S=C([S-])NCCNC(=S)[S-].[Zn+2] [zineb, zinc N,N'-ethylene-bis-(dithiocarbamate)] | 58% | 100% | 57% | 100% | 100% | 100% | 60% | 100% | 80% | 78% | 100% | 59% | 100% | 54% | 98% | 100% | 62% | 98% |  | 
6 | O=C(N=P(OCCCl)(OCCCl)OCCCl)c1ccccc1 [Example 1, tris-(2-chloroethoxy)phosphazobenzoyl] |  |  |  |  |  |  |  |  |  |  |  |  |  |  |  |  |  |  | soluble in water, alcohols, toluene | Death of flies, % Tests laboratory (domestic flies [22]): 86%; Death of flies, % Tests large-scale (domestic flies [23]): 85%
7 | O=C(N=P(Nc1ccc(Cl)cc1[N+](=O)[O-])(Nc1ccc(Cl)cc1[N+](=O)[O-])Nc1ccc(Cl)cc1[N+](=O)[O-])c1ccc(Br)cc1 [Example 6, tris--(para-chloro -ortho-nitroanilido)phosphazo-para-bromobenzoyl] | 100% | 100% | 70% | 100% | 100% | 100% | 100% | 100% | 100% | 100% | 100% | 100% | 100% | 69% | 100% | 100% | 100% | 100% | soluble in water, acetone, alcohols, benzene | 
